Patent US9682141B2, “Combination of kinase inhibitors and uses thereof” (INTELLIKINE LLC, priority 2011, dated 2017)
Where two headings read alike, the source gives them in different places.

Key:
Format in all cases: biochemical
mTORC = mTORC (Homo sapiens (Human), UniProt P42345); assay: mTOR inhibition assay (radiometric or LanthaScreen TR-FRET)
Description: The compounds described herein can be tested against recombinant mTOR (Invitrogen) in an assay containing 50 mM HEPES, pH 7.5, 1 mM EGTA, 10 mM MgCl2, 2.5 mM, 0.01% Tween, 10 μM ATP (2.5 μCi of μ-32P-ATP), and 3 μg/mL BSA. Rat recombinant PHAS-1/4EBP1 (Calbiochem; 2 mg/mL) is used as a substrate. Reactions are terminated by spotting onto nitrocellulose, which is washed with 1M NaCl/1% phosphoric acid (approximately 6 times, 5-10 minutes each). Sheets are dried and the transferred radioactivity quantitated by phosphorimaging.
For instance, one can use Invitrogen's LanthaScreen™ Kinase assay to test the inhibitors of mTOR disclosed herein. This assay is a time resolved FRET platform that measures the phosphorylation of GFP labeled 4EBP1 by mTOR kinase. The kinase reaction is performed in a white 384 well microtitre plate. The total reaction volume is 20 ul per well and the reaction buffer composition is 50 mM HEPES pH7.5, 0.01% Polysorbate 20, 1 mM EGTA, 10 mM MnCl2, and 2 mM DTT. In the first step, each well receives 2 ul of test compound in 20% dimethylsulphoxide resulting in a 2% DMSO final concentration. Next, 8 ul of mTOR diluted in reaction buffer is added per well for a 60 ng/ml final concentration. To start the reaction, 10 ul of an ATP/GFP-4EBP1 mixture (diluted in reaction buffer) is added per well for a final concentration of 10 μM ATP and 0.5 μM GFP-4EBP1. The plate is sealed and incubated for 1 hour at room temperature. […] The plate is sealed, incubated for 1 hour at room temperature, and then read on a plate reader set up for LanthaScreen™ TR-FRET. Data is analyzed and IC50s are generated using GraphPad Prism 5.

PI3K α = PI3K α (Homo sapiens (Human), UniProt P42336); assay: PI 3-Kinase (human) HTRF assay, p110α/p85α
PI3K γ = PI3K γ (Homo sapiens (Human), UniProt P48736); assay: PI 3-Kinase (human) HTRF assay, p110γ
PI3K δ = PI3K δ (Homo sapiens (Human), UniProt O00329); assay: PI 3-Kinase (human) HTRF assay, p110δ/p85α
PI3K δ, sequence (O00329 whole entry): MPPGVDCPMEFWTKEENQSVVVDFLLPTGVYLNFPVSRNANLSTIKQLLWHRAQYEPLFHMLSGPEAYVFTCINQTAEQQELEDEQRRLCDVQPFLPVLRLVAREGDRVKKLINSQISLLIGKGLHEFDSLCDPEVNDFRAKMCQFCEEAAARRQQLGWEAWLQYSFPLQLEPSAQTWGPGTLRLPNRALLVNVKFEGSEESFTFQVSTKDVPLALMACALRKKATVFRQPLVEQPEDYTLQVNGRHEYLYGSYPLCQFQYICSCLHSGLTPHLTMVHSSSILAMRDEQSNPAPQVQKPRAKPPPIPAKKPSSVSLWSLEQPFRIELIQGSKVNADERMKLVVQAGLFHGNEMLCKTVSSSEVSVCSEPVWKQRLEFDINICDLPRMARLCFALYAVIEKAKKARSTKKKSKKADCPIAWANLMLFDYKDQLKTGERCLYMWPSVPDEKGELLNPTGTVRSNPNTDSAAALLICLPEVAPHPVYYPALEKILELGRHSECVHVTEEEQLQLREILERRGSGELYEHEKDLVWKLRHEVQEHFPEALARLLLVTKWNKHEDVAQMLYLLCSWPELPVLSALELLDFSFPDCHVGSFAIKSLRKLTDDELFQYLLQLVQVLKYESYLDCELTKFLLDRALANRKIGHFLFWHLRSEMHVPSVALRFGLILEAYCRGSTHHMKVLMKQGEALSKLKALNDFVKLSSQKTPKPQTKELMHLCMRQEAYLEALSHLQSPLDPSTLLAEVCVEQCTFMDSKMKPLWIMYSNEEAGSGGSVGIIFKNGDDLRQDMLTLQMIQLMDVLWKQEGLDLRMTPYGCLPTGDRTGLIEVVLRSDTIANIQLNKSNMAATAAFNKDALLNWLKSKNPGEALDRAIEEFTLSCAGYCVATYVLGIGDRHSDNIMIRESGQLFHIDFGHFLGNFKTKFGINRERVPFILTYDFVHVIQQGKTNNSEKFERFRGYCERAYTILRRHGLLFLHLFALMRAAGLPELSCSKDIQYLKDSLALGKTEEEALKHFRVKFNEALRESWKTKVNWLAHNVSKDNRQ
PI3K δ, sequence (P27986 whole entry partner): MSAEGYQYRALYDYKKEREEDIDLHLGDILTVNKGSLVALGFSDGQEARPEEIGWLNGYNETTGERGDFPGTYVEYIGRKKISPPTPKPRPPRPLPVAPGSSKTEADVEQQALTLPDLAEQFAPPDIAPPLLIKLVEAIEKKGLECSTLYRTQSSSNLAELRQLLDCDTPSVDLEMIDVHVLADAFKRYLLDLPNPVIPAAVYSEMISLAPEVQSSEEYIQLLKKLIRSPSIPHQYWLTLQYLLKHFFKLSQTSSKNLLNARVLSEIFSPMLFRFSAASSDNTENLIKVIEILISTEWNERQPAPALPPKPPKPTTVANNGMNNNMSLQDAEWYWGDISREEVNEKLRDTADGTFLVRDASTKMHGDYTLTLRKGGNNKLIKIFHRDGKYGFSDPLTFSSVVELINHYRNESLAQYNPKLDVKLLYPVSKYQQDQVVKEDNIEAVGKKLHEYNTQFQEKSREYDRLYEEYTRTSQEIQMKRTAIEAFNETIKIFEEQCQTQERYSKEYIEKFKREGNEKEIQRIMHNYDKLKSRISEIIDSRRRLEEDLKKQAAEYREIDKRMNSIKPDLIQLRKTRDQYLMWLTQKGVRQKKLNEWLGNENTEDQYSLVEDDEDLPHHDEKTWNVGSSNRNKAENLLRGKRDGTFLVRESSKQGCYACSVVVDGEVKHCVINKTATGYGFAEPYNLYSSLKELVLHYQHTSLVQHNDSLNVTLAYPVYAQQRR

PI3K β = PI3K β (Homo sapiens (Human), UniProt P42338); assay: PI 3-Kinase (human) HTRF assay, p110β/p85α
PI3K β, sequence (P42338 whole entry): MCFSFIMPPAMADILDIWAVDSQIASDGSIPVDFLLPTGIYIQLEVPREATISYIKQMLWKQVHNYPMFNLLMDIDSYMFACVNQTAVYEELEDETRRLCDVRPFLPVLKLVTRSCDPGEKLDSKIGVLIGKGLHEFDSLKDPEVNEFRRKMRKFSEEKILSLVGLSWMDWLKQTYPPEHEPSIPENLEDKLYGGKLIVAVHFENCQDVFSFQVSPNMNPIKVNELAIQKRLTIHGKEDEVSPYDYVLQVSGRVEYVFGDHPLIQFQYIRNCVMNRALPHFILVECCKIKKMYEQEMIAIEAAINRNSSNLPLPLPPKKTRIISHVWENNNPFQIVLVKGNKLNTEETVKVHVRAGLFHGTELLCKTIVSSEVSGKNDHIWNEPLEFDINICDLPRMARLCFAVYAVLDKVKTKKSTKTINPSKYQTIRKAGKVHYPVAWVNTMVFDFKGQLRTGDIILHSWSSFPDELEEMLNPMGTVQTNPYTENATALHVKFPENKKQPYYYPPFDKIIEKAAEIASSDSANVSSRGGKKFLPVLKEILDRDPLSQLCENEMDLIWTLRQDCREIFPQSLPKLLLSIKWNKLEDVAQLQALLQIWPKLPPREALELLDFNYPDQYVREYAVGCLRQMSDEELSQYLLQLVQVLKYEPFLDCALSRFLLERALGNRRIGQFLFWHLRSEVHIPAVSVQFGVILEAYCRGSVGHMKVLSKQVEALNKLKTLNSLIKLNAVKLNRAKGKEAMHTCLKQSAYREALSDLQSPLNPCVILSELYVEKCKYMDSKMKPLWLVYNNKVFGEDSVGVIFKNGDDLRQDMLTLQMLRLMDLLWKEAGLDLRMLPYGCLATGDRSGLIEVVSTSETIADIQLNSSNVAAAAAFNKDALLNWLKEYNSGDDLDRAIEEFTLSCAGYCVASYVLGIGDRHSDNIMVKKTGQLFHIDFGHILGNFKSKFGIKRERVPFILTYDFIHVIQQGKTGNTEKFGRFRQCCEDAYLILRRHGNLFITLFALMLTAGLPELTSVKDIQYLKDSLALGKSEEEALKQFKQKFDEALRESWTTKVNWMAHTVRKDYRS
PI3K β, sequence (P27986 whole entry partner): as the sequence (P27986 whole entry partner) above

[1] = PI 3-Kinase (human) HTRF assay, p110δ/p85α; conditions: read-out: PI3K γ IC50

PI3K α, sequence (P42336 whole entry): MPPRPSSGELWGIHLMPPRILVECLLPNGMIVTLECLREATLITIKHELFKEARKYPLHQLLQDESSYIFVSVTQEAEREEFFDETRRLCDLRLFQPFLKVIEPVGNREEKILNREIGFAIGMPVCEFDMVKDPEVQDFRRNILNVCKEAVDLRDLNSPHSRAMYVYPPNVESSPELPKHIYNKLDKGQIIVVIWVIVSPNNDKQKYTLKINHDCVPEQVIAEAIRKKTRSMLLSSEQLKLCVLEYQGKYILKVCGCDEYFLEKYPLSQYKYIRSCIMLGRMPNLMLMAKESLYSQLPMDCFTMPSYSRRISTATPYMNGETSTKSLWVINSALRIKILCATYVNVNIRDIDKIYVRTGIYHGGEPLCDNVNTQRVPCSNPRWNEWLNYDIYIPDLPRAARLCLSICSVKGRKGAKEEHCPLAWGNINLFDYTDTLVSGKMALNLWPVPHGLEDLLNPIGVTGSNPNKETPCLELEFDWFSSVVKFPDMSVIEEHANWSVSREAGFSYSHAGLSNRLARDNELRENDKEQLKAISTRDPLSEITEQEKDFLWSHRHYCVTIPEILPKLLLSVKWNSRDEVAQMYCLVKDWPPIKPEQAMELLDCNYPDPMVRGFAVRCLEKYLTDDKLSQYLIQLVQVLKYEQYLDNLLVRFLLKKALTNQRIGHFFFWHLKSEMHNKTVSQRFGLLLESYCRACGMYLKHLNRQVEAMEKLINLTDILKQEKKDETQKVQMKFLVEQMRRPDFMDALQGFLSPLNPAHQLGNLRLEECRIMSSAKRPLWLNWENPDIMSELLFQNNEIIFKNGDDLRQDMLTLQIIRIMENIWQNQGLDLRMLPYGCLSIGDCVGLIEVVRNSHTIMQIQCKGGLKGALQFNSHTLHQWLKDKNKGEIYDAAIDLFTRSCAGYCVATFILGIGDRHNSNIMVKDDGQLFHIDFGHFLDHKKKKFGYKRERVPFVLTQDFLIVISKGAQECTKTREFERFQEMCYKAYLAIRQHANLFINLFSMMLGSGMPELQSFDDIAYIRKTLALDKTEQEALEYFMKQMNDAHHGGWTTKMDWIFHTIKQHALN
PI3K α, sequence (P27986 whole entry partner): as the sequence (P27986 whole entry partner) above

Structure (SMILES)	IC50 (mTORC) [µM]	IC50 (PI3K α) [µM]	IC50 (PI3K γ; read-out: PI3K γ IC50) [µM]	IC50 (PI3K δ) [µM]	IC50 (PI3K β) [µM]	IC50 (PI3K γ; read-out: PI3K δ IC50) [µM]	IC50 [1] [µM]
Nc1nc2cc(-c3ccc4ncn(C5CCOCC5)c(=O)c4c3)ccc2o1	> 10	< 1	> 10	> 10	–	–	–
Nc1nc2cc(-c3ccc4ncc(N5CCN(C(=O)[C@@H](N)CO)CC5)nc4c3)ccc2o1	< 10	< 0.1	–	–	< 1	< 10	< 10
CN1CCN(C2CN(C(=O)c3cnc4ccc(-c5ccc6oc(N)nc6c5)cn34)C2)CC1	< 10	< 0.1	–	–	> 10	> 10	< 10
Nc1nc2cc(-c3ccc4ncc(N5CC(N6CCN(C7CC7)CC6)C5)nc4c3)ccc2o1	< 10	< 0.1	–	–	< 10	< 10	< 10
Nc1nc2cc(-c3ccc4ncc(N5CC(N6CC[C@@H](O)C6)C5)nc4c3)ccc2o1	< 1	< 0.1	–	–	< 10	< 10	< 10
Nc1nc2cc(-c3ccc4ncc(N5CC(n6cccn6)C5)nc4c3)ccc2o1	< 1	< 0.1	–	–	< 10	< 10	> 10
Cc1ccn(C2CN(c3cnc4ccc(-c5ccc6oc(N)nc6c5)cc4n3)C2)n1	> 10	< 0.1	–	–	< 10	< 10	< 10
Nc1nc2cc(-c3ccc4ncc(N5CC(N6CC[C@H](O)C6)C5)nc4c3)ccc2o1	> 10	< 0.1	–	–	< 1	< 1	< 10
CN1CCN(C2CN(c3cnc4ccc(-c5ccc6oc(N)nc6c5)cc4n3)C2)CC1=O	> 10	< 0.1	–	–	< 10	< 1	< 10
CCN(CC)C1CN(c2cnc3ccc(-c4ccc5oc(N)nc5c4)cc3n2)C1	> 10	< 0.1	–	–	< 10	< 1	< 10
Nc1nc2cc(-c3ccc4ncc(N5CC(N6CCNCC6)C5)nc4c3)ccc2o1	> 10	< 0.1	–	–	< 1	< 1	< 1
CC(=O)N1CCN(C2CN(c3cnc4ccc(-c5ccc6oc(N)nc6c5)cc4n3)C2)CC1	> 10	< 0.1	–	–	< 10	< 1	< 1
CS(=O)(=O)N1CCN(C2CN(c3cnc4ccc(-c5ccc6oc(N)nc6c5)cc4n3)C2)CC1	> 10	< 0.1	–	–	< 10	< 10	< 10
CCN1CCN(C2CN(c3cnc4ccc(-c5ccc6oc(N)nc6c5)cc4n3)C2)CC1	> 10	< 0.1	–	–	< 1	< 10	< 1
COC(=O)N1CCC(n2ncc3c(N4CCOCC4)nc(-c4ccc5oc(N)nc5c4)nc32)CC1	< 1	< 1	–	–	< 10	> 10	> 10
CC(C)N1CCN(C2CN(c3cnc4ccc(-c5ccc6oc(N)nc6c5)cc4n3)C2)CC1	> 10	< 0.1	–	–	< 10	< 10	< 10
Nc1nc2cc(-c3ccc4ncc(N5CC(N6CCN(CCO)CC6)C5)nc4c3)ccc2o1	> 10	< 0.1	–	–	< 10	< 10	< 1
Nc1nc2cc(-c3ccc4ncc(N5CC(N6CCN(CC7CC7)CC6)C5)nc4c3)ccc2o1	> 10	< 0.1	–	–	< 10	> 10	< 10

Structure (SMILES)	IC50 (mTORC) [µM]	IC50 (PI3K α) [µM]	IC50 (PI3K γ; read-out: PI3K γ IC50) [µM]	IC50 (PI3K δ) [µM]	IC50 (PI3K β) [µM]	IC50 (PI3K γ; read-out: PI3K δ IC50) [µM]	IC50 [1] [µM]
Nc1nc2cc(-c3ccc4ncc(N5CCC(n6ccnc6)CC5)nc4c3)ccc2o1	< 10	< 0.1	–	–	< 1	< 1	< 1
Nc1nc2cc(-c3nc(N4CCOCC4)c4cnn(C5CCNCC5)c4n3)ccc2o1	< 1	< 1	–	–	< 0.1	< 1	< 10
C[C@H]1CN(C2CN(c3cnc4ccc(-c5ccc6oc(N)nc6c5)cc4n3)C2)CCN1	> 10	< 0.1	–	–	< 10	> 10	< 10
Cc1cc2oc(N)nc2cc1-c1ccc2ncc(N3CC(N4CCOCC4)C3)nc2c1	> 10	< 10	–	–	> 10	> 10	> 10
Cc1nccn1C1CN(c2cnc3ccc(-c4ccc5oc(N)nc5c4)cc3n2)C1	< 10	< 0.1	–	–	< 10	< 10	< 10
Nc1nc2cc(-c3ccc4ncc(N5CC(N6CCOCC6)C5)nc4c3)c(F)cc2o1	> 10	< 0.1	–	–	< 10	< 10	< 10
CS(=O)(=O)N1CCN(C2CCN(c3cnc4ccc(-c5ccc6oc(N)nc6c5)cc4n3)CC2)CC1	< 10	< 0.1	–	–	< 10	< 1	< 10
CN(C)[C@@H]1CCN(c2cnc3ccc(-c4ccc5oc(N)nc5c4)cc3n2)C1	< 1	< 0.1	–	–	< 0.1	< 10	< 10
CN1CCN([C@@H]2CCN(c3cnc4ccc(-c5ccc6oc(N)nc6c5)cc4n3)C2)CC1	< 10	< 0.1	–	–	< 1	> 10	< 10
Nc1nc2cc(-c3ccc4ncc(N5CCNC(C(F)(F)F)C5)nc4c3)ccc2o1 (stereo not shown)	< 1	< 0.1	–	–	< 1	< 1	< 10
CC1(C)CN(C2CN(c3cnc4ccc(-c5ccc6oc(N)nc6c5)cc4n3)C2)CCN1	< 0.1	< 0.1	–	–	< 1	< 1	< 1
COc1ncc(-c2ccc3ncc(C(=O)N4CCOCC4)n3c2)cc1NS(=O)(=O)c1ccc(F)cc1F	< 1	< 0.1	–	–	< 0.1	< 0.1	< 0.1
CS(=O)(=O)Nc1cc(-c2ccc3ncc(C(=O)N4CCOCC4)n3c2)cnc1Cl	< 0.1	< 0.1	–	–	< 0.1	< 0.1	< 0.1
O=C(c1cnc2ccc(-c3cnc(Cl)c(NS(=O)(=O)c4ccc(F)cc4F)c3)cn12)N1CCOCC1	< 1	< 0.1	–	–	< 0.1	< 0.1	< 0.1
Cn1cc(-c2ccnc3ccc(-c4ccc5oc(N)nc5c4)cc23)cn1 [Compound 26]	< 1	< 0.1	< 0.1	< 0.1	–	–	–
CN1CCC(Nc2ncnc3ccc(-c4ccc5oc(N)nc5c4)cc23)CC1 [Compound 35]	< 10	< 0.1	< 0.1	< 0.1	–	–	–
CN1CCC(n2cnc3ccc(-c4ccc5oc(N)nc5c4)cc3c2=O)CC1 [Compound 36]	< 10	< 0.1	> 10	< 10	–	–	–
Nc1nc2cc(-c3ccc4nccn4c3)ccc2o1 [Compound 40]	< 10	< 10	< 10	> 10	–	–	–
